Measurements: publication PMC5316400, “Validation of precision-cut liver slices to study drug-induced cholestasis: a transcriptomics approach” (Archives of Toxicology, 2016)

Legend:
[1] = system: Genes involved in unfolded protein response (UPR); experiment: Microarray gene expression in human PCLS exposed to cholestatic drugs: unfolded protein response genes; type: cell-based; conditions: 24 h, 60 μM bile acid mix
Description: (§1) Precision-cut liver slices of 5 mm diameter and 250 μm thickness were prepared (de Graaf et al. [2010]). At this thickness, full penetration of substrates has been shown. PCLS were made using the Krumdieck tissue slicer (Alabama R&D, Munford, AL, USA) in ice-cold Krebs buffer at pH 7.42, enriched with glucose to a final concentration of 25 mM, saturated with carbogen (95 % O2/5 % CO2). Immediately after the slices were made, they were placed in ice-cold University of Wisconsin organ preservation solution (UW, Dupont Critical Care, Waukegan, IL, USA) and stored on ice until the beginning of the experiment. Slices were pre-incubated individually in 12-well plates in 1.3 ml of Williams Medium E with glutamax-1 (Gibco, Invitrogen, Paisley, Scotland) supplemented with 25 mM D-glucose and 50 μg/ml gentamycin (Gibco, Invitrogen, Paisley, Scotland). In the incubator (Sanyo CO2/O2 Incubator, PANASONIC, Secaucus, NJ, USA), the plates were gently shaken (90 times/min) for 1 h under 80 % O2 and 5 % CO2 atmosphere at 37 °C. This pre-incubation allows the slices to restore their ATP levels. […] The plates were incubated under the same conditions for 24 h. All incubation conditions were carried out in triplicate. Each experiment was performed in slices of 6 different human livers (Table 1). Slices were harvested for ATP assay in 100 mM Tris buffer with 2 mM EDTA and for RNA isolation in RNAlater. The bile acid mix was added to the medium in order to create an environment similar to the physiological concentration in the portal vein. The composition of the serum bile acids was according to Scherer et al. ([2009]). Pilot experiments were performed to find out the non-toxic concentration of the bile acid mix.
(§2) Maxwell® 16 LEV Total RNA purification kit (Promega, The Netherlands) with Maxwell® 16 LEV Instrument was used to isolate RNA from the samples. Immediately after isolation, the RNA quality was assessed by measuring the 260/280 and 260/230 ratios, and the concentration was measured with the ND-1000 spectrophotometer (Fisher Scientific, Landsmeer, The Netherlands). The quality (RIN value) and quantity of the RNA were determined by high-throughput Caliper GX LabChip RNA kit (Caliper).
(§3) Ambion Illumina Total Prep RNA kit was used to transcribe 300 ng RNA to cRNA according to the manufacturer’s instructions. A total of 750 ng of cRNA was hybridized at 58 °C for 16 h to the Illumina HumanHT-12 v4 Expression BeadChips. BeadChips were scanned using Iscan software, and IDAT files were generated (Illumina, San Diego, CA, USA).
(§4) GenomeStudio software (Illumina) was used to read the IDAT files and generate raw expression values. The ArrayAnalysis web service (www.arrayanalysis.org/) was used for further preprocessing the data, which uses lumi R package (Eijssen et al. [2013]). Raw gene expression data were background-corrected (bgAdjust), variance-stabilized (VST) and normalized by quantile normalization. After normalization, the data were corrected for batch differences owing to RNA isolation and hybridization using the ComBat method implemented in the swamp package in R (Lauss et al. [2013]). Differentially expressed genes in slices exposed to the cholestatic drugs in the presence of bile acids versus the slices exposed to vehicle (DMSO) in the presence of bile acids were identified using the unpaired moderated t test in the limma package (Ritchie et al. [2015]). Genes that are regulated with a criterion of fold change of 1.5 (≤ or ≥1.5), and FDR-corrected p value ≤0.05 (Benjamini and Hochberg method) were chosen for pathway analysis. To compare our data with the scarcely available human in vivo data, human in vivo late-stage cholestasis data were downloaded from the Gene Expression Omnibus database (GSE46960).

[2] = system: Genes involved in the FXR pathway; experiment: Microarray gene expression in human PCLS exposed to cholestatic drugs: FXR pathway genes; conditions: 24 h, 60 μM bile acid mix
Description: as §1, §2, §3, §4

[3] = system: human precision-cut liver slices (PCLS); experiment: Transcriptomics of human PCLS: differentially regulated genes; type: cell-based; conditions: fold change of 1.5 and adjusted p value 0.05, 24 h, 60 μM bile acid mix
Description: as §1, §2, §3, §4

[4] = system: Genes involved in hepatic cholestasis pathway; experiment: Microarray gene expression in human PCLS exposed to cholestatic drugs: hepatic cholestasis pathway genes; conditions: 24 h, 60 μM bile acid mix
Description: as §1, §2, §3, §4

[5] = adult patients, therapeutic dose, systemic blood; no reference given; cited from earlier work
[6] = C max in systemic blood of adult patients after a therapeutic dose; conditions: highest toxic concentration tested in human PCLS vs C max in adult patients

S=C=Nc1cccc2ccccc12 [AN, Alpha-naphthylisothiocyanate]
ATF4 fold change ([1]; 75 μM): 2.3 | DDIT3 (CHOP) fold change ([1]; 75 μM): 2.9 | DNAJB9 fold change ([1]; 75 μM): 2.7 | ERN1 fold change ([1]; 75 μM): 1.5 | HSPA9 fold change ([1]; 75 μM): 1.9 | HSPH1 fold change ([1]; 75 μM): 2.0 | INSIG1 fold change ([1]; 75 μM): −2.5 | NFE2L2 fold change ([1]; 75 μM): 1.5 | SYVN1 fold change ([1]; 75 μM): 1.5 | ABCB4 fold change ([2]; 75 μM): −2.1 | ABCB11 fold change ([2]; 75 μM): −1.8 | ABCG5 fold change ([2]; 75 μM): −1.5 | ABCG8 fold change ([2]; 75 μM): −2.3 | APOC2 fold change ([2]; 75 μM): −1.8 | APOC4 fold change ([2]; 75 μM): −1.8 | APOF fold change ([2]; 75 μM): −1.9 | BAAT fold change ([2]; 75 μM): −1.8 | C3 fold change ([2]; 75 μM): −1.7 | CYP8B1 fold change ([2]; 75 μM): −3.5 | CYP27A1 fold change ([2]; 75 μM): −1.3 | FASN fold change ([2]; 75 μM): −1.9 | FBP1 fold change ([2]; 75 μM): −1.8 | FETUB fold change ([2]; 75 μM): −2.0 | FGA fold change ([2]; 75 μM): −2.1 | ITIH4 fold change ([2]; 75 μM): −1.9 | KNG1 fold change ([2]; 75 μM): −2.3 | NR0B2 (SHP) fold change ([2]; 75 μM): −1.8 | NR1H3 (LXR) fold change ([2]; 75 μM): −1.8 | NR1H4 (FXR) fold change ([2]; 75 μM): −1.8 | PON1 fold change ([2]; 75 μM): −2.0 | RXRA fold change ([2]; 75 μM): −1.5 | SCARB1 fold change ([2]; 75 μM): −2.2 | SDC1 fold change ([2]; 75 μM): −2.0 | SERPINF2 fold change ([2]; 75 μM): −1.8 | SLC22A7 fold change ([2]; 75 μM): −2.9 | SLC51B fold change ([2]; 75 μM): −1.9 | SULT2A1 fold change ([2]; 75 μM): −2.1 | Number of regulated genes ([3]; 25 μM): 2 | Number of regulated genes ([3]; 50 μM): 183 | Number of regulated genes ([3]; 75 μM): 458 | ABCB4 fold change ([4]; 75 μM): −2.1 | ABCB11 fold change ([4]; 75 μM): −1.3 | ABCC3 fold change ([4]; 75 μM): −1.2 | ABCG5 fold change ([4]; 75 μM): −1.6 | ABCG8 fold change ([4]; 75 μM): −2.3 | CYP8B1 fold change ([4]; 75 μM): −3.4 | CYP27A1 fold change ([4]; 75 μM): −1.4 | GCGR fold change ([4]; 75 μM): −1.9 | IL1B fold change ([4]; 75 μM): −1.2 | IL1RL1 fold change ([4]; 75 μM): 2.3 | IL1RN fold change ([4]; 75 μM): 1.1 | IRAK2 fold change ([4]; 75 μM): 1.6 | JUN fold change ([4]; 75 μM): 1.3 | NR0B2 fold change ([4]; 75 μM): −1.2 | NR1H3 fold change ([4]; 75 μM): −1.1 | NR1H4 fold change ([4]; 75 μM): −1.1 | PPRC1 fold change ([4]; 75 μM): 1.6 | RXRA fold change ([4]; 75 μM): −1.6 | SLC22A7 fold change ([4]; 75 μM): −2.9 | TNFRSF1B fold change ([4]; 75 μM): −1.5

CN(C)CCCN1c2ccccc2Sc2ccc(Cl)cc21 [CP, chlorpromazine]
Cmax [5]: 0.42 µM | ATF4 fold change ([1]; 30 μM): 1.5 | DDIT3 (CHOP) fold change ([1]; 30 μM): 1.2 | DNAJB9 fold change ([1]; 30 μM): 1.0 | ERN1 fold change ([1]; 30 μM): 1.0 | HSPA9 fold change ([1]; 30 μM): 1.1 | HSPH1 fold change ([1]; 30 μM): 1.0 | INSIG1 fold change ([1]; 30 μM): 1.3 | NFE2L2 fold change ([1]; 30 μM): 1.1 | SYVN1 fold change ([1]; 30 μM): 1.0 | ABCB4 fold change ([2]; 30 μM): −2.0 | ABCB11 fold change ([2]; 30 μM): −1.7 | ABCG5 fold change ([2]; 30 μM): −1.4 | ABCG8 fold change ([2]; 30 μM): −1.7 | APOC2 fold change ([2]; 30 μM): −1.4 | APOC4 fold change ([2]; 30 μM): −1.8 | APOF fold change ([2]; 30 μM): −1.9 | BAAT fold change ([2]; 30 μM): −1.5 | C3 fold change ([2]; 30 μM): −1.5 | CYP8B1 fold change ([2]; 30 μM): −2.3 | CYP27A1 fold change ([2]; 30 μM): −1.1 | FASN fold change ([2]; 30 μM): −1.4 | FBP1 fold change ([2]; 30 μM): −2.0 | FETUB fold change ([2]; 30 μM): −1.8 | FGA fold change ([2]; 30 μM): −1.7 | ITIH4 fold change ([2]; 30 μM): −1.4 | KNG1 fold change ([2]; 30 μM): −1.8 | NR0B2 (SHP) fold change ([2]; 30 μM): −1.3 | NR1H3 (LXR) fold change ([2]; 30 μM): −1.3 | NR1H4 (FXR) fold change ([2]; 30 μM): −1.4 | PON1 fold change ([2]; 30 μM): −1.9 | RXRA fold change ([2]; 30 μM): −1.1 | SCARB1 fold change ([2]; 30 μM): −1.6 | SDC1 fold change ([2]; 30 μM): −1.4 | SERPINF2 fold change ([2]; 30 μM): −1.5 | SLC22A7 fold change ([2]; 30 μM): −2.6 | SLC51B fold change ([2]; 30 μM): −1.9 | SULT2A1 fold change ([2]; 30 μM): −1.9 | Number of regulated genes ([3]; 10 μM): 1 | Number of regulated genes ([3]; 20 μM): 2 | Number of regulated genes ([3]; 30 μM): 61 | toxic concentration used in PCLS study relative to C max [6]: ~ 70 × C max | ABCB4 fold change ([4]; 30 μM): −2.0 | ABCB11 fold change ([4]; 30 μM): −1.4 | ABCC3 fold change ([4]; 30 μM): −1.1 | ABCG5 fold change ([4]; 30 μM): −1.4 | ABCG8 fold change ([4]; 30 μM): −1.7 | CYP8B1 fold change ([4]; 30 μM): −2.3 | CYP27A1 fold change ([4]; 30 μM): −1.3 | GCGR fold change ([4]; 30 μM): −1.7 | IL1B fold change ([4]; 30 μM): −1.1 | IL1RL1 fold change ([4]; 30 μM): 1.4 | IL1RN fold change ([4]; 30 μM): 1.3 | IRAK2 fold change ([4]; 30 μM): 1.2 | JUN fold change ([4]; 30 μM): 1.5 | NR0B2 fold change ([4]; 30 μM): −1.6 | NR1H3 fold change ([4]; 30 μM): −1.2 | NR1H4 fold change ([4]; 30 μM): −1.2 | PPRC1 fold change ([4]; 30 μM): 1.2 | RXRA fold change ([4]; 30 μM): −1.3 | SLC22A7 fold change ([4]; 30 μM): −2.6 | TNFRSF1B fold change ([4]; 30 μM): 1.0
